In assay [1] the test system is TNF-α release from human PBMCs. In words: Cell based assay for TNF-α release, PDE IV inhibitor in combination with p38 MAP Kinase inhibitors. The settings on record: inhibiting TNF-α release from human PBMCs. On the procedure:
Blood was collected in heparin or EDTA vacutainers from healthy human volunteers and Peripheral Blood Mononuclear Cells isolated using Ficoll Hypaque gradient. The cells were resuspended in serum free RPMI 1640 medium at a concentration of 2 million cells/ml.). […] of this cell suspension was co-incubated with 20 μl of compound, alone or in combination, for 10 min in a flat bottom 96 well microtiter plate. Compounds were dissolved in DMSO initially and diluted in medium for a final concentration of 0.2% DMSO. LPS (1 μg/ml, final concentration) was then added at a volume of 10 μl per well. After 30 min, 20 μl of fetal calf serum (final concentration of 10%) was added to each well. Cultures were incubated overnight at 37° C. in an atmosphere of 5% CO2 and 95% air. Supernatant were then removed and tested by ELISA for TNF-α release using a commercial kit (e.g. BD Biosciences). The level of TNF-α in treated wells was compared with the vehicle treated controls and inhibitory potency of compound was expressed as IC50 values calculated from the percent inhibition values by using Graph pad prism.

In assay [2] the test system is LPS induced airway hyperreactivity and neutrophil count in BAL. As to the kind of experiment: In-vivo assay of PDE-IV inhibitors in combination with muscarinic receptor antagonists (LPS airway hyperreactivity and neutrophilia). The settings on record: Wistar rats, intratracheal, combination with Tiotropium. On the procedure: MRA (1 ng/kg to 1 mg/kg) and PDE-IV inhibitor (1 ng/kg to 1 mg/kg) were instilled intratracheally under anesthesia either alone or in combination.
Wistar rats weighing 200±20 gm were used in the study. Rats had free access to food and water. On the day of experiment, animals were exposed to lipopolysaccharide (LPS, 100 μg/ml) for 40 min. One group of vehicle treated rats was exposed to phosphate buffered saline (PBS) for 40 min. […] The respiratory parameters were recorded online using Biosystem XA software, (Buxco Electronics, USA). Penh, at any chosen dose of acetylcholine was expressed as percent of PBS response and using a nonlinear regression analysis PC100 (2 folds of PBS value) values were computed. […]
PC100LPS=PC100 in vehicle treated and LPS challenged group PC100TEST=PC100 in group treated with a given dose of test compound PC100PBS=PC100 in vehicle treated group challenged with PBS Immediately after the airway hyperreactivity response was recorded, animals were sacrificed and bronchoalveolar lavage (BAL) performed. […] Total leukocyte and Neutrophil counts were expressed as cell count (millions cells ml^−1 of BAL). […]

Molecules are shown by their SMILES.

The text below walks through data of patent publication US20090054382A1, “COMPOSITIONS OF PHOSPHODIESTERASE TYPE IV INHIBITORS” (priority 2005, published 2009).

For `COc1cc(C2=NO[C@]3(CCOC3)C2)ccc1OC(F)F` (single isomer, unassigned) [Compound No. 266, (5S or 5R)-3-[4-(Difluoromethoxy)-3-methoxyphenyl]-1,7-dioxa-2-azaspiro[4.4]non-2-ene], in assay [1], the Indication entry is given as “synergistic response”. Moreover, in assay [2], the “synergy with muscarinic receptor antagonist (MRA)” value is “synergy”.
